Assay results from ChEMBL document CHEMBL1201862, “PubChem BioAssay data set” (2004).
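Interpolation was linear, between the two tested concentrations surrounding the appropriate level; five concentrations were tested over 48 hours in 96-well plates. GI50 is the concentration that inhibits growth by half.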 Activity calls are given as the source filed them. No stated cut-off is given here; in the data, active = GI50 up to about 1.1 µM and inactive = higher.

What was measured:
Assay in all cases: NCI tumour cell line growth inhibition, 48 h
SNB-78 = tested on: SNB-78
KM-20L2 = tested on: KM-20L2
RXF 631 = tested on: RXF 631
M19-MEL = tested on: M19-MEL
XF498 = tested on: XF498
DMS-273 = tested on: DMS-273
HOP-18 = tested on: HOP-18
DMS-114 = tested on: DMS-114
DLD-1 = tested on: DLD-1

Measured: GI50

O=C(/N=N/C(=O)OCc1ccccc1)OCc1ccccc1
inactive: SNB-78 > 100 µM | KM-20L2 > 100 µM | RXF 631 > 100 µM | M19-MEL > 100 µM | XF498 > 100 µM | DMS-273 91.6 µM | HOP-18 > 100 µM | DMS-114 34.4 µM

CC(C)C(=O)/C=C/c1ccccc1
inactive: SNB-78 33.1 µM | KM-20L2 36.1 µM | M19-MEL > 100 µM | XF498 > 100 µM | DMS-273 65.2 µM | HOP-18 > 100 µM | DLD-1 84.7 µM

CC(=O)N1CCC(=O)/C(=C/c2ccccc2)C1
inactive: SNB-78 38.5 µM | KM-20L2 27.4 µM | RXF 631 28.9 µM | M19-MEL 20.4 µM | XF498 64 µM | DMS-273 33 µM | HOP-18 23.2 µM | DLD-1 24.1 µM | DMS-114 15.8 µM

COC(=O)[C@@H]1Cc2c([nH]c3ccccc23)[C@H](c2ccccc2)N1
inactive: KM-20L2 > 100 µM | M19-MEL 41.7 µM | DMS-273 26.7 µM | HOP-18 52.1 µM | DLD-1 35.2 µM | DMS-114 32.2 µM

COc1ccc2nc(NC(=O)C(=O)C(C#N)c3ccc(Cl)c(Cl)c3)sc2c1 (configuration not stated)
inactive: SNB-78 > 100 µM | KM-20L2 > 100 µM | RXF 631 > 100 µM | M19-MEL > 100 µM | XF498 > 100 µM | DMS-273 > 100 µM | DLD-1 > 100 µM | DMS-114 78.9 µM

CCC(C(=O)c1ccccc1)C(CCCC(=O)Nc1c(C)cccc1C)N=O (configuration not stated)
inactive: SNB-78 > 100 µM | KM-20L2 > 100 µM | RXF 631 > 100 µM | M19-MEL > 100 µM | XF498 > 100 µM | DMS-273 > 100 µM | HOP-18 > 100 µM | DLD-1 > 100 µM

CCSC(=O)C1(C)OC2CCCCC2C1=O (configuration not stated)
inactive: SNB-78 > 100 µM | KM-20L2 > 100 µM | M19-MEL > 100 µM | DMS-273 > 100 µM | HOP-18 > 100 µM | DLD-1 > 100 µM | DMS-114 > 100 µM

CC1=C(C(=O)Nc2ccccc2)C(c2ccc(Cl)c(Cl)c2)C(C(=O)Nc2ccccc2)=C(C)N1
inactive: SNB-78 17.7 µM | KM-20L2 14.9 µM | RXF 631 12.4 µM | M19-MEL 12.9 µM | XF498 16.6 µM | DMS-273 13 µM | DLD-1 12.1 µM | DMS-114 11.2 µM

CSc1nnc(CCC(=O)Nc2c(C)cccc2C)o1
inactive: SNB-78 > 100 µM | KM-20L2 > 100 µM | RXF 631 > 100 µM | M19-MEL > 100 µM | XF498 > 100 µM | HOP-18 > 100 µM | DLD-1 > 100 µM | DMS-114 > 100 µM

CCOC(=O)/C(=C/c1ccc(C#N)cc1)N(CC)CC
inactive: SNB-78 > 100 µM | RXF 631 > 100 µM | M19-MEL > 100 µM | XF498 > 100 µM | HOP-18 63 µM | DLD-1 > 100 µM | DMS-114 > 100 µM

CCOC(=O)/C([O-])=C(\C(=O)OCC)[n+]1c(C)n(C)c2ccccc21
inactive: SNB-78 > 100 µM | KM-20L2 > 100 µM | M19-MEL > 100 µM | DMS-273 > 100 µM | HOP-18 > 100 µM | DLD-1 > 100 µM | DMS-114 > 100 µM

Nc1c([N+](=O)[O-])nc(Cl)c2nncn12
inactive: SNB-78 > 100 µM | KM-20L2 > 87.1 µM | RXF 631 > 100 µM | M19-MEL > 100 µM | XF498 > 100 µM | DMS-273 16.5 µM | HOP-18 > 100 µM | DLD-1 > 58.9 µM | DMS-114 > 42 µM

O=C(c1ccc(O)cc1)C1c2c3c(cc(O)c2C(c2ccc(O)cc2)C1c1cc(O)cc(O)c1)OC(c1ccc(O)cc1)C3c1cc2c(cc1O)OC(c1ccc(O)cc1)C2c1cc(O)cc(O)c1 (configuration not stated)
inactive: KM-20L2 > 12.5 µM | M19-MEL > 12.5 µM | DMS-273 > 12.5 µM | DLD-1 > 12.5 µM | DMS-114 > 12.5 µM

CC(C)=CCC/C(C)=C/CC/C(C)=C/C1CCC(=O)C1(C)C (configuration not stated)
inactive: SNB-78 22.6 µM | KM-20L2 16.3 µM | RXF 631 44.6 µM | M19-MEL 19.2 µM | XF498 18.2 µM | HOP-18 22.4 µM | DLD-1 17.4 µM | DMS-114 14.5 µM

C=C1C(=O)OC2C1C(OC(=O)/C(C)=C\C)CC1(CO1)C1C(O)C=C(C)C21O (configuration not stated)
inactive: SNB-78 9.53 µM | KM-20L2 3.19 µM | RXF 631 3.52 µM | M19-MEL 6.24 µM | XF498 12.7 µM | DMS-273 6.46 µM | HOP-18 10.9 µM | DLD-1 2.33 µM | DMS-114 3.19 µM

CC(c1cccc2ccccc12)/[N+]([O-])=C/c1ccccc1 (configuration not stated)
inactive: KM-20L2 > 100 µM | RXF 631 > 100 µM | XF498 > 100 µM | DMS-273 > 100 µM | HOP-18 36.1 µM | DLD-1 > 100 µM | DMS-114 > 100 µM

N#C/C(=C\c1ccc(O)cc1O)C(N)=O
inactive: SNB-78 > 100 µM | KM-20L2 28.2 µM | M19-MEL > 100 µM | XF498 34.2 µM | DMS-273 > 100 µM | DLD-1 67.1 µM
